Measurements reported in the CheMixHub viscosity set.

Assay: xn = mol fraction of the nth substance listed

CCOC(=O)C(=O)OCC + CCCCO
303.15 K, 101.33 kPa
Settings	viscosity [mPa·s]
x1 = 0.1064	1.803
x1 = 0.1924	1.613
x1 = 0.2954	1.496
x1 = 0.3832	1.438
x1 = 0.5033	1.405
x1 = 0.6097	1.405
x1 = 0.6734	1.419
x1 = 0.7804	1.461
x1 = 0.9074	1.556

COCCO + CCCCO
viscosity [mPa·s]
Settings	298.15 K	308.15 K	313.15 K	318.15 K
100 kPa, x1 = 0.1009	2.27	–	1.6	–
100 kPa, x1 = 0.2003	2.06	–	1.48	–
100 kPa, x1 = 0.3003	1.91	–	1.39	–
100 kPa, x1 = 0.4012	1.8	–	1.32	–
100 kPa, x1 = 0.5008	1.72	–	1.27	–
100 kPa, x1 = 0.6012	1.65	–	1.24	–
100 kPa, x1 = 0.7006	1.61	–	1.21	–
100 kPa, x1 = 0.7998	1.58	–	1.19	–
100 kPa, x1 = 0.9	1.56	–	1.18	–
101 kPa, x1 = 0.09765	2.212	1.688	–	1.266
101 kPa, x1 = 0.1958	2.061	1.583	–	1.212
101 kPa, x1 = 0.2945	1.948	1.49	–	1.172
101 kPa, x1 = 0.3937	1.88	1.355	–	1.117
101 kPa, x1 = 0.4934	1.813	1.304	–	1.063
101 kPa, x1 = 0.5937	1.767	1.248	–	1.046
101 kPa, x1 = 0.6944	1.723	1.219	–	1.036
101 kPa, x1 = 0.7957	1.674	1.191	–	0.996
101 kPa, x1 = 0.8976	1.622	1.179	–	0.9925
101.33 kPa, x1 = 0.1184	–	1.694	–	–
101.33 kPa, x1 = 0.2345	–	1.551	–	–
101.33 kPa, x1 = 0.3377	–	1.443	–	–
101.33 kPa, x1 = 0.4484	–	1.361	–	–
101.33 kPa, x1 = 0.5476	–	1.305	–	–
101.33 kPa, x1 = 0.6312	–	1.265	–	–
101.33 kPa, x1 = 0.7363	–	1.229	–	–
101.33 kPa, x1 = 0.9104	–	1.195	–	–

CCCC(C)O (configuration not stated) + CCCCOC(C)=O
viscosity [mPa·s], 100 kPa
Settings	x2 = 0.0809	x2 = 0.1601	x2 = 0.2399	x2 = 0.3501	x2 = 0.44	x2 = 0.56	x2 = 0.65	x2 = 0.7398	x2 = 0.85	x2 = 0.9399
293.15 K	2.506	1.64	1.205	0.917	0.797	0.724	0.703	0.685	0.684	0.7
298.15 K	2.253	1.525	1.121	0.853	0.744	0.668	0.656	0.644	0.644	0.656
303.15 K	2.018	1.419	1.05	0.805	0.688	0.62	0.605	0.6	0.599	0.618
308.15 K	1.688	1.227	0.926	0.704	0.616	0.56	0.546	0.537	0.548	0.566
313.15 K	1.407	1.016	0.775	0.619	0.548	0.504	0.488	0.48	0.496	0.52
318.15 K	1.139	0.816	0.614	0.497	0.455	0.424	0.416	0.421	0.448	0.476
323.15 K	0.874	0.6	0.438	0.365	0.343	0.338	0.341	0.358	0.391	0.432
